According to paper PMC4823724 (Scientific Reports, 2016):

Assays:
(UniProt G7TDB2) = target: T1, (UniProt G7TDB2); assay: biochemical
T1 construct: gene XOC_2102

XOC_4190ΔG = target: T2, XOC_4190ΔG
T2 construct: gene XOC_4190

(UniProt G7TKC9) = target: T3, (UniProt G7TKC9); assay: biochemical
T3 construct: gene XOC_4190
T3 sequence (G7TKC9 1-656 limits assumed): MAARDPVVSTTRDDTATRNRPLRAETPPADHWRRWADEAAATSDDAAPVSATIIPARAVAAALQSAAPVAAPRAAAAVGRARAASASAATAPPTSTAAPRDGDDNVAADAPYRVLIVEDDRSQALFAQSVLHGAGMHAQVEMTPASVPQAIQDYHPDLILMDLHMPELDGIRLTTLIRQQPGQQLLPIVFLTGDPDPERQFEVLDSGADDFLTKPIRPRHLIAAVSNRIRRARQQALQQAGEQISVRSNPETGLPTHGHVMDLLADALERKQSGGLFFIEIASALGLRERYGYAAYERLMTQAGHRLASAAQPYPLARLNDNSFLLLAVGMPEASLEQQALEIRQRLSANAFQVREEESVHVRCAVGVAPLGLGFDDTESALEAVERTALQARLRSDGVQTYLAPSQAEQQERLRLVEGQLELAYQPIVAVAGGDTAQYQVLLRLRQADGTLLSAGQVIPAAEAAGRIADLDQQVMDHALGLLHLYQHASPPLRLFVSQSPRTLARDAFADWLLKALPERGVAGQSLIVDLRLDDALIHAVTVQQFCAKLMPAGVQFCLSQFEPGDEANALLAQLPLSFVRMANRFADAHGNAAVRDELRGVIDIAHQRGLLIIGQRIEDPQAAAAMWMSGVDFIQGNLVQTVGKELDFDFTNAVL

T1 sequence (G7TDB2 1-689): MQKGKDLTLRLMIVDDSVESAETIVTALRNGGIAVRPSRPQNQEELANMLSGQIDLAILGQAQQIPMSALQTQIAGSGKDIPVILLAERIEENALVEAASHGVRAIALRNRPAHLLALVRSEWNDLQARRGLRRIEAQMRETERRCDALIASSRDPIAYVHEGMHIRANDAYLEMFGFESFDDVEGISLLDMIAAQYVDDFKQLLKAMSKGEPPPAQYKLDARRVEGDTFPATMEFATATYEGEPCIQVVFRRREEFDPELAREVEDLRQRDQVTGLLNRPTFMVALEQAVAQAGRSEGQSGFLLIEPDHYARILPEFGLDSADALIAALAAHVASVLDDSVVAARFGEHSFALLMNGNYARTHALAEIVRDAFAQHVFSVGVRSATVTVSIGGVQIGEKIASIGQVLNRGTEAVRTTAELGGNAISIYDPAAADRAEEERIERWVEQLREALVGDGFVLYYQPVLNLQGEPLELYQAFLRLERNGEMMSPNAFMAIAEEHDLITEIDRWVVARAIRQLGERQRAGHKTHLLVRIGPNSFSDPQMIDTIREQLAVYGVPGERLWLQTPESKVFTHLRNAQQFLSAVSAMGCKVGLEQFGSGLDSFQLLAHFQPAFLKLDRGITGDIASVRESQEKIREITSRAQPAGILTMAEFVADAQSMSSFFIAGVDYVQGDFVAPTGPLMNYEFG

**Q.** With `Nc1nc2c(ncn2[C@@H]2O[C@@H]3COP(=O)(O)O[C@H]4[C@@H](O)[C@H](n5cnc6c(=O)[nH]c(N)nc65)O[C@@H]4COP(=O)(O)O[C@H]3[C@H]2O)c(=O)[nH]1` [c-di-GMP] as the compound, how does the Kd ((UniProt G7TDB2)) read?
**A.** 2.9 ± 0.13 µM

**Q.** And the Kd (XOC_4190ΔG)?
**A.** 4.46 ± 0.28 µM

**Q.** And the Kd ((UniProt G7TKC9))?
**A.** 4.59 ± 0.36 µM
